Reference: PubChem BioAssay (NCI)
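Here, GI50 denotes the concentration required for 50% inhibition of growth. Definition used: TGI = concentration required for complete inhibition of growth.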

Legend:
Assay in all cases: inhibition of tumour cell growth, NCI panel, 384-well format
786-0 renal = system: 786-0 renal
A549 NSCLC = system: A549 NSCLC
ACHN renal = system: ACHN renal
BT-549 breast = system: BT-549 breast
CAKI-1 renal = system: CAKI-1 renal
CCRF-CEM leukemia = system: CCRF-CEM leukemia
COLO 205 colon = system: COLO 205 colon
DU-145 prostate = system: DU-145 prostate
EKVX NSCLC = system: EKVX NSCLC
HCC-2998 colon = system: HCC-2998 colon
HCT-15 colon = system: HCT-15 colon
HL-60(TB) leukemia = system: HL-60(TB) leukemia
HOP-62 NSCLC = system: HOP-62 NSCLC
HOP-92 NSCLC = system: HOP-92 NSCLC
HS 578T breast = system: HS 578T breast
HT29 colon = system: HT29 colon
IGROV1 ovarian = system: IGROV1 ovarian
KM12 colon = system: KM12 colon
M14 melanoma = system: M14 melanoma
MALME-3M melanoma = system: MALME-3M melanoma
MCF7 breast = system: MCF7 breast
MDA-MB-231 breast = system: MDA-MB-231 breast
MDA-MB-435 melanoma = system: MDA-MB-435 melanoma
MDA-MB-468 breast = system: MDA-MB-468 breast
MOLT-4 leukemia = system: MOLT-4 leukemia
NCI-H226 lung = system: NCI-H226 lung
NCI-H23 lung = system: NCI-H23 lung
NCI-H322M lung = system: NCI-H322M lung
NCI-H460 NSCLC = system: NCI-H460 NSCLC
NCI-H522 lung = system: NCI-H522 lung
NCI/ADR-RES ovarian = system: NCI/ADR-RES ovarian
OVCAR-3 ovarian = system: OVCAR-3 ovarian
OVCAR-4 ovarian = system: OVCAR-4 ovarian
OVCAR-5 ovarian = system: OVCAR-5 ovarian
OVCAR-8 ovarian = system: OVCAR-8 ovarian
PC-3 prostate = system: PC-3 prostate
RPMI-8226 leukemia = system: RPMI-8226 leukemia
RXF 393 renal = system: RXF 393 renal
SF-268 CNS = system: SF-268 CNS
SF-295 CNS = system: SF-295 CNS
SF-539 CNS = system: SF-539 CNS
SK-MEL-2 melanoma = system: SK-MEL-2 melanoma
SK-MEL-28 melanoma = system: SK-MEL-28 melanoma
SK-MEL-5 melanoma = system: SK-MEL-5 melanoma
SK-OV-3 ovarian = system: SK-OV-3 ovarian
SN12C renal = system: SN12C renal
SNB-19 CNS = system: SNB-19 CNS
SNB-75 CNS = system: SNB-75 CNS
SR leukemia = system: SR leukemia
SW-620 colon = system: SW-620 colon
T-47D breast = system: T-47D breast
TK-10 renal = system: TK-10 renal
U251 glioblastoma = system: U251 glioblastoma
UACC-257 melanoma = system: UACC-257 melanoma
UACC-62 melanoma = system: UACC-62 melanoma

## Nc1ncn([C@@H]2S[C@H](CO)[C@@H](O)[C@@H]2F)c(=O)n1
786-0 renal
  GI50: 254 nM
  TGI: 1540 nM
A549 NSCLC
  GI50: 409 nM
  TGI: > 100 µM
ACHN renal
  GI50: 224 nM
  TGI: 490 nM
BT-549 breast
  GI50: 1340 nM
  TGI: 8.75 µM
CAKI-1 renal
  GI50: 625 nM
  TGI: > 100 µM
CCRF-CEM leukemia
  GI50: 26.6 nM
  TGI: 96.1 nM
COLO 205 colon
  GI50: 268 nM
  TGI: 788 nM
DU-145 prostate
  GI50: 389 nM
  TGI: 3.95 µM
EKVX NSCLC
  GI50: 6.47 µM
  TGI: > 100 µM
HCC-2998 colon
  GI50: 267 nM
  TGI: 14.1 µM
HCT-15 colon
  GI50: 1850 nM
  TGI: > 100 µM
HL-60(TB) leukemia
  GI50: 241 nM
  TGI: 495 nM
HOP-62 NSCLC
  GI50: 423 nM
  TGI: 2590 nM
HOP-92 NSCLC
  GI50: 314 nM
  TGI: > 100 µM
HS 578T breast
  GI50: 984 nM
  TGI: > 100 µM
HT29 colon
  GI50: 2380 nM
  TGI: > 100 µM
IGROV1 ovarian
  GI50: 2030 nM
  TGI: > 100 µM
KM12 colon
  GI50: 1410 nM
  TGI: > 100 µM
M14 melanoma
  GI50: 290 nM
  TGI: 833 nM
MALME-3M melanoma
  GI50: 366 nM
  TGI: 2660 nM
MCF7 breast
  GI50: 663 nM
  TGI: > 100 µM
MDA-MB-231 breast
  GI50: 1140 nM
  TGI: 81.1 µM
MDA-MB-435 melanoma
  GI50: 1730 nM
  TGI: > 100 µM
MDA-MB-468 breast
  GI50: 2370 nM
  TGI: 8.07 µM
MOLT-4 leukemia
  GI50: 28.7 nM
  TGI: 110 nM
NCI-H226 lung
  GI50: 1010 nM
  TGI: 3.8 µM
NCI-H23 lung
  GI50: 269 nM
  TGI: 805 nM
NCI-H322M lung
  GI50: 2910 nM
  TGI: > 100 µM
NCI-H460 NSCLC
  GI50: 238 nM
  TGI: 724 nM
NCI-H522 lung
  GI50: 628 nM
  TGI: > 100 µM
NCI/ADR-RES ovarian
  GI50: 291 nM
  TGI: 1380 nM
OVCAR-3 ovarian
  GI50: 853 nM
  TGI: > 100 µM
OVCAR-4 ovarian
  GI50: > 100 µM
  TGI: > 100 µM
OVCAR-5 ovarian
  GI50: 691 nM
  TGI: 7.73 µM
OVCAR-8 ovarian
  GI50: 255 nM
  TGI: 1830 nM
PC-3 prostate
  GI50: 1430 nM
  TGI: > 100 µM
RPMI-8226 leukemia
  GI50: 2160 nM
  TGI: 4.42 µM
RXF 393 renal
  GI50: 2770 nM
  TGI: 44.8 µM
SF-268 CNS
  GI50: 1050 nM
  TGI: 4.99 µM
SF-295 CNS
  GI50: 2440 nM
  TGI: 17.8 µM
SF-539 CNS
  GI50: 3.75 µM
  TGI: 18.6 µM
SK-MEL-2 melanoma
  GI50: 392 nM
  TGI: 692 nM
SK-MEL-28 melanoma
  GI50: 507 nM
  TGI: 4.92 µM
SK-MEL-5 melanoma
  GI50: 435 nM
  TGI: 2760 nM
SK-OV-3 ovarian
  GI50: 299 nM
  TGI: 2200 nM
SN12C renal
  GI50: 604 nM
  TGI: 2910 nM
SNB-19 CNS
  GI50: 461 nM
  TGI: 7.05 µM
SNB-75 CNS
  GI50: 15.6 µM
  TGI: > 100 µM
SR leukemia
  GI50: 414 nM
  TGI: 1400 nM
SW-620 colon
  GI50: 887 nM
  TGI: > 100 µM
T-47D breast
  GI50: 10.4 µM
  TGI: > 100 µM
TK-10 renal
  GI50: 988 nM
  TGI: > 100 µM
U251 glioblastoma
  GI50: 2410 nM
  TGI: 23.6 µM
UACC-257 melanoma
  GI50: 58.7 µM
  TGI: > 100 µM
UACC-62 melanoma
  GI50: 3.64 µM
  TGI: 19.7 µM
